Where a SMILES comes first, the peptide text is derived from it. Bridges are numbered along the chain shown (N, C = ends). Where no end group is shown, it is not given here.
Experiments:
[1] = Plasma stability of VIP peptide complex (remaining rate in rat plasma); type: in vitro ADME, SD rats; settings: VIP complexes, 37° C.; for remaining at 8 h, 0.5 μmol/L / remaining at 48 h, 0.5 μmol/L: SD; for remaining at 8 h, 0.5 μmol/L: read-out: Remaining rate in plasma after 8 hours (%); for remaining at 48 h, 0.5 μmol/L: read-out: Remaining rate in plasma after 48 hours; for Remaining rate in plasma after 8 hours (%) / Remaining rate in plasma after 48 hours: 0.5 μmol/L
Protocol: The plasma stability was evaluated in vitro, in order to inspect the biostability of the VIP peptide complex.
SD rats were anesthetized with diethyl ether, whole blood was collected, and a plasma fraction was separated therefrom. The VIP or VIP-peptide complex was added to the plasma so that the final concentration thereof was 0.5 μmol/L, and the mixture was incubated at 37° C. A sample was recovered after 0, 8 or 48 hours, and a remaining rate was evaluated by an HPLC/MS measurement of an amount of the VIP or VIP peptide complex.

endogenous VIP receptor = biological target: T1, endogenous VIP receptor (Homo sapiens, UniProt P41587); experiment: cAMP productivity in SUP-T1 cells; type: cell-based; settings: 3-3000 nM, IBMX, 30 minutes
T1 construct: expressing an endogenous VIP receptor; host or cells: SUP-T1 human T-cell line
T1 sequence (P41587 24-438): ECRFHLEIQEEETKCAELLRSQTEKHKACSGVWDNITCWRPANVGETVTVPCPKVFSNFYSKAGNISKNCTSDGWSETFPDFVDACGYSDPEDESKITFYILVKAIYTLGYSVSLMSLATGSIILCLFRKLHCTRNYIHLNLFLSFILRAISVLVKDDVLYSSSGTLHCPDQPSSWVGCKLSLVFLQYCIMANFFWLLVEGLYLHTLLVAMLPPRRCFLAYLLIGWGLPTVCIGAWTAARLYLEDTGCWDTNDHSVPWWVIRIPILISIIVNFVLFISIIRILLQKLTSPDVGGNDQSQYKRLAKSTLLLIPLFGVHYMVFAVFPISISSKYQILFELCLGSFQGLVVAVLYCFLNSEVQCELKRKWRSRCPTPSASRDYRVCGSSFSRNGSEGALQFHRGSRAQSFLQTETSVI
Protocol: A productivity of cAMP was analyzed in vitro, in order to evaluate the activity intensity of the VIP peptide complexes showing the plasma stability in Experimental Example 4.
An intracellular cAMP productivity was evaluated using SUP-T1 cells which were derived from human T-cell, expressing an endogenous VIP receptor (purchased from ATCC). The SUP-T1 cells which were subjected to suspension culture for 48 or more hours were moved to a tube, and the cells were washed twice with a medium (RPMI-1640). After that, a medium including IBMX (3-isobutyl-1-methylxanthine), which was an inhibitor of a catabolic enzyme of the cAMP, was added thereto, and the mixture was incubated at 37° C. for 15 minutes. After centrifugation, the supernatant was removed, and an IBMX-containing medium including the VIP peptide complex was added thereto. The reaction was performed at 37° C. for 30 minutes. After the reaction, the tube was centrifuged, the supernatant was removed, and the cell lysate was added thereto. The mixture was incubated at 37° C. for 30 minutes to dissolve the cells, and the productivity was evaluated by the measurement of the cAMP. The cAMP measurement was performed using an enzyme-linked immunosorbent assay (ELISA) by chemiluminescence detection.
The activity intensity (%) of the VIP peptide complex was calculated according to the following formula.
Activity Intensity (%)=[{(the maximum amount of the cAMP produced in each VIP peptide complex)/(the maximum amount of the cAMP produced in native VIP)]×100

[2] = Plasma stability of somatostatin peptide complex (remaining rate in rat plasma); settings: for remaining at 8 h, 0.5 μmol/L / remaining at 48 h, 0.5 μmol/L: SD, rat, plasma
Protocol: The plasma stability was evaluated in vitro, in order to inspect the biostability of the somatostatin peptide complex.
SD rats were anesthetized with diethyl ether, whole blood was collected, and a plasma fraction was separated therefrom. The somatostatin or somatostatin peptide complex was added to the plasma so that the final concentration thereof was 0.5 μmol/L, and the mixture was incubated at 37° C. A sample was recovered after 0, 8 or 48 hours, and a remaining rate was evaluated by an HPLC/MS measurement of an amount of the somatostatin or somatostatin peptide complex.

endogenous SSTR 5 = biological target: T2, endogenous SSTR 5 (Mus musculus, UniProt O08858); experiment: Suppressibility of insulin secretion in MIN 6 cells; type: cell-based; settings: 20 mM glucose, 1-1000 nM
T2 construct: expressing an endogenous SSTR 5; endogenous in cells; host or cells: MIN 6 mouse insulinoma cells (obtained from a person)
T2 sequence (O08858 1-362): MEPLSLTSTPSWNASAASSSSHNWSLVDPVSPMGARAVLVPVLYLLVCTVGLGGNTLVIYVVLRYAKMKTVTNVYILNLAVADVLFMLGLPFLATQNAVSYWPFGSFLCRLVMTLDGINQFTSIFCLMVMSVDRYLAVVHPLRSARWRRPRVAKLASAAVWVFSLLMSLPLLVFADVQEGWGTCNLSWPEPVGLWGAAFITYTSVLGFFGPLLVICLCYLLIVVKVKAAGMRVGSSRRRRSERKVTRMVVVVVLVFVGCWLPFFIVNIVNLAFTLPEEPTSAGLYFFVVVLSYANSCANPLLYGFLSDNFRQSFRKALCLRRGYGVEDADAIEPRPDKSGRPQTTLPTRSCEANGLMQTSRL
Protocol: The suppressibility of insulin secretion was evaluated using MIN 6 (obtained from a person) which was an insulinoma cell derived from a mouse, expressing an endogenous SSTR 5. MIN 6 was seeded on a multi-plate, which was cultivated at 37° C. for 48 hours. […] A supernatant thereof was recovered, and an amount of insulin secreted was measured. The measurement of the insulin was performed in an enzyme-linked immunosorbent assay (ELISA), and an absorbance was measured at 450 nm (a sub-wavelength: 620 nm) after the addition of a substrate.
In this experiment, the activity evaluations of the native SRIF (Comparative Example 15) and the GAm (28-44)-SRIF-NH2(Example 29) were performed in a concentration of 1, 3, 10, 30, 100, 300, and 1000 nM, and the maximum suppression rate (%) of the insulin secretion was calculated. The maximum suppression rate (%) of the insulin secretion in the somatostatin peptide complex was calculated according to the following formula. Maximum Suppression Rate (%) of Insulin Secretion (%)=[{(the maximum value of the suppression of the insulin secretion in the SRIF peptide complex)/(the maximum value of the suppression of the insulin secretion in the native SRIF)]×100

[3] = Plasma stability of ghrelin peptide complex (remaining rate in rat plasma); type: in vitro ADME, SD rats; settings: 37° C.
Protocol: Evaluation was performed in a manner in which after the treatment of the ghrelin or ghrelin peptide complex in plasma for a pre-determined time, an amount of change of the ghrelin or ghrelin peptide complex undecomposed was measured by an HPLC/MS.

[4] = somatostatin complexes, rat plasma, 0.5 μmol/L, 37° C.

Compound | Remaining rate in plasma after 48 hours [1] [%] | remaining at 8 h, 0.5 μmol/L [1] [%] | remaining at 48 h, 0.5 μmol/L [1] [%] | Remaining rate in plasma after 8 hours (%) [1] | Activity Intensity (%), maximum amount of cAMP produced relative to native VIP (endogenous VIP receptor) [%] | other results
CC[C@H](C)[C@H](NC(=O)[C@H](CO)NC(=O)[C@H](CC(N)=O)NC(=O)[C@H](CC(C)C)NC(=O)[C@H](Cc1ccc(O)cc1)NC(=O)[C@H](CCCCN)NC(=O)[C@H](CCCCN)NC(=O)[C@@H](NC(=O)[C@H](C)NC(=O)[C@H](CCSC)NC(=O)[C@H](CCC(N)=O)NC(=O)[C@H](CCCCN)NC(=O)[C@H](CCCNC(=N)N)NC(=O)[C@H](CC(C)C)NC(=O)[C@H](CCCNC(=N)N)NC(=O)[C@@H](NC(=O)[C@H](Cc1ccc(O)cc1)NC(=O)[C@H](CC(N)=O)NC(=O)[C@H](CC(=O)O)NC(=O)[C@@H](NC(=O)[C@H](Cc1ccccc1)NC(=O)[C@@H](NC(=O)[C@H](C)NC(=O)[C@H](CC(=O)O)NC(=O)[C@H](CO)NC(=O)[C@@H](N)Cc1c[nH]cn1)C(C)C)[C@@H](C)O)[C@@H](C)O)C(C)C)C(=O)N[C@@H](CC(C)C)C(=O)N[C@@H](CC(N)=O)C(N)=O [Comparative Example 14, VIP(1-28)-NH2, reference compound] |  | 0 | 0 | completely decomposed | 100 | 
C[C@H](N)C(=O)NCC(=O)N[C@H]1CSSC[C@@H](C(N)=O)NC(=O)[C@H](CO)NC(=O)[C@H]([C@@H](C)O)NC(=O)[C@H](Cc2ccccc2)NC(=O)[C@H]([C@@H](C)O)NC(=O)[C@H](CCCCN)NC(=O)[C@H](Cc2c[nH]c3ccccc23)NC(=O)[C@H](Cc2ccccc2)NC(=O)[C@H](Cc2ccccc2)NC(=O)[C@H](CC(N)=O)NC(=O)[C@H](CCCCN)NC1=O [Comparative Example 15, SRIF(1-14)-NH2, reference compound] |  |  |  |  |  | remaining at 8 h, 0.5 μmol/L [2]: 0%; remaining at 48 h, 0.5 μmol/L [2]: 0%; Remaining rate in plasma after 8 hours (%) [2, 4]: completely decomposed; Suppression rate of insulin secretion (%), maximum, relative to native SRIF (endogenous SSTR 5): 100%
CCCCCCCC(=O)OC[C@H](NC(=O)[C@H](CO)NC(=O)CN)C(=O)N[C@@H](Cc1ccccc1)C(=O)N[C@@H](CC(C)C)C(=O)N[C@@H](CO)C(=O)N1CCC[C@H]1C(=O)N[C@@H](CCC(=O)O)C(=O)N[C@@H](Cc1c[nH]cn1)C(=O)N[C@@H](CCC(N)=O)C(=O)N[C@@H](CCCNC(=N)N)C(=O)N[C@H](C(=O)N[C@@H](CCC(N)=O)C(=O)N[C@@H](CCC(N)=O)C(=O)N[C@@H](CCCNC(=N)N)C(=O)N[C@@H](CCCCN)C(=O)N[C@@H](CCC(=O)O)C(=O)N[C@@H](CO)C(=O)N[C@@H](CCCCN)C(=O)N[C@@H](CCCCN)C(=O)N1CCC[C@H]1C(=O)N1CCC[C@H]1C(=O)N[C@@H](C)C(=O)N[C@@H](CCCCN)C(=O)N[C@@H](CC(C)C)C(=O)N[C@@H](CCC(N)=O)C(=O)N1CCC[C@H]1C(=O)N[C@@H](CCCNC(=N)N)C(N)=O)C(C)C [Comparative Example 17, Ghrelin(1-28)-NH2] |  |  |  |  |  | Remaining rate in plasma after 2 hours (%) ([3]; 0.5 μmol/L, 2 hours): 14%; remaining at 0.5 h, 0.5 μmol/L ([3]; SD, 0.5 hour, read-out: Remaining rate in plasma after 0.5 hour (%)): 50%; remaining at 2 h, 0.5 μmol/L ([3]; SD, 2 hours, read-out: Remaining rate in plasma after 2 hours (%)): 14%; remaining at 8 h, 0.5 μmol/L ([3]; SD, 8 hours, read-out: Remaining rate in plasma after 8 hours (%)): 0%
CC[C@H](C)[C@H](NC(=O)[C@H](CCC(=O)O)NC(=O)[C@H](CC(=O)O)NC(=O)[C@@H](NC(=O)[C@H](CC(C)C)NC(=O)[C@H](CC(N)=O)NC(=O)[C@H](CC(C)C)NC(=O)[C@@H](NC(=O)[C@H](CO)NC(=O)[C@H](CC(N)=O)NC(=O)[C@H](CC(C)C)NC(=O)[C@H](Cc1ccc(O)cc1)NC(=O)[C@H](CCCCN)NC(=O)[C@H](CCCCN)NC(=O)[C@@H](NC(=O)[C@H](C)NC(=O)[C@H](CCSC)NC(=O)[C@H](CCC(N)=O)NC(=O)[C@H](CCCCN)NC(=O)[C@H](CCCNC(=N)N)NC(=O)[C@H](CC(C)C)NC(=O)[C@H](CCCNC(=N)N)NC(=O)[C@@H](NC(=O)[C@H](Cc1ccc(O)cc1)NC(=O)[C@H](CC(N)=O)NC(=O)[C@H](CC(=O)O)NC(=O)[C@@H](NC(=O)[C@H](Cc1ccccc1)NC(=O)[C@@H](NC(=O)[C@H](C)NC(=O)[C@H](CC(=O)O)NC(=O)[C@H](CO)NC(=O)[C@@H](N)Cc1c[nH]cn1)C(C)C)[C@@H](C)O)[C@@H](C)O)C(C)C)[C@@H](C)CC)[C@@H](C)CC)C(=O)N[C@@H](CC(C)C)C(=O)N[C@@H](C)C(=O)N[C@@H](C)C(N)=O [Example 25, VIP(1-28)-GAm(37-44)-NH2] | 118 | 118 | 118 | not totally decomposed | 81 | 
CC[C@H](C)[C@H](NC(=O)[C@H](CCC(=O)O)NC(=O)[C@H](CC(=O)O)NC(=O)[C@@H](NC(=O)[C@H](CC(C)C)NC(=O)[C@H](C)NC(=O)[C@H](CCCCN)NC(=O)[C@@H](NC(=O)CNC(=O)[C@H](CCC(=O)O)NC(=O)[C@@H](NC(=O)[C@@H](NC(=O)[C@H](CCCCN)NC(=O)[C@H](C)N)[C@@H](C)O)C(C)C)C(C)C)[C@@H](C)CC)C(=O)N[C@@H](CC(C)C)C(=O)N[C@@H](C)C(=O)N[C@@H](C)C(=O)N[C@@H](C)C(=O)NCC(=O)N[C@H]1CSSC[C@@H](C(N)=O)NC(=O)[C@H](CO)NC(=O)[C@H]([C@@H](C)O)NC(=O)[C@H](Cc2ccccc2)NC(=O)[C@H]([C@@H](C)O)NC(=O)[C@H](CCCCN)NC(=O)[C@H](Cc2c[nH]c3ccccc23)NC(=O)[C@H](Cc2ccccc2)NC(=O)[C@H](Cc2ccccc2)NC(=O)[C@H](CC(N)=O)NC(=O)[C@H](CCCCN)NC1=O [Example 29, GAm(28-44)-SRIF(1-14)-NH2] (H-AKTVEGVKALIDEILAAAGCKNFFWKTFTSC-NH2; disulfide 20-31; N-terminus assumed) |  |  |  |  |  | remaining at 8 h, 0.5 μmol/L [2]: 80%; remaining at 48 h, 0.5 μmol/L [2]: 23%; Remaining rate in plasma after 8 hours (%) [2, 4]: 80%; Remaining rate in plasma after 48 hours (%) ([2]; somatostatin complexes, rat plasma, 0.5 μmol/L, 37° C., 48 hours): 23%; Suppression rate of insulin secretion (%), maximum, relative to native SRIF (endogenous SSTR 5): 90%

Second part, led by results:

Remaining rate in plasma after 48 hours [1] [%] | Compound | remaining at 8 h, 0.5 μmol/L [1] [%] | remaining at 48 h, 0.5 μmol/L [1] [%] | Remaining rate in plasma after 8 hours (%) [1] | Activity Intensity (%), maximum amount of cAMP produced relative to native VIP (endogenous VIP receptor) [%] | other results
35 | HSDAVFTDNYTRLRKQMAVKKYLNSILNAKTVEGVKALIDEILAA-NH2 [Example 27, VIP(1-28)-GAm(28-44)-NH2] | 109 | 35 | not totally decomposed | 67 | 
47 | HSDAVFTDNYTRLRKQMAVKKYLNSILNEGVKALIDEILAA-NH2 [Example 26, VIP(1-28)-GAm(32-44)-NH2] | 99 | 47 | not totally decomposed | 85 | 
